Activity calls are given as the source filed them. The rule behind the calls is not given here.
Key:
BV-2 [1] = test: Anti-neuroinflammatory activity in LPS-induced mouse BV-2 cells assessed as inhibition of NO production pretreated for 4 hrs followed by LPS stimulation for 24 hrs by griess reagent based assay; assay type: functional, cell-based
[2] = Cytotoxicity against mouse BV-2 cells incubated for 24 hrs by MTT assay; assay type: toxicity, cell-based
BV-2 [3] = test: Antineuroinflammatory activity in LPS-induced mouse BV-2 cells assessed as decrease in IL-1beta protein level pretreated for 4 hrs followed by LPS stimulation for 24 hrs by ELISA; assay type: functional, cell-based; conditions: dose 2.5-10 µM, time 28.0 hrs
BV-2 [4] = test: Antineuroinflammatory activity in LPS-induced mouse BV-2 cells assessed as decrease in IL-6 mRNA level preincubated for 4 hrs followed by LPS stimulation and measured after 6 hrs by RT-PCR method; assay type: functional, cell-based; conditions: dose 2.5-10 µM, time 10.0 hrs
BV-2 [5] = test: Antineuroinflammatory activity in LPS-induced mouse BV-2 cells assessed as downregulation of NF-kappaB p65 protein expression in nucleus at 5 to 10 uM pretreated for 4 hrs followed by LPS stimulation and measured after 24 hrs by Western blot analysis; assay type: functional, cell-based; conditions: dose 5-10 µM, time 28.0 hrs
BV-2 [6] = test: Antineuroinflammatory activity in LPS-induced mouse BV-2 cells assessed as upregulation of IkappaB protein level in nucleus at 5 to 10 uM pretreated for 4 hrs followed by LPS stimulation and measured after 24 hrs by Western blot analysis; assay type: functional, cell-based; conditions: dose 5-10 µM, time 28.0 hrs
BV-2 [7] = test: Antineuroinflammatory activity in LPS-induced mouse BV-2 cells assessed as decrease in IL-6 protein level pretreated for 4 hrs followed by LPS stimulation for 24 hrs by ELISA; assay type: functional, cell-based; conditions: dose 2.5-10 µM, time 28.0 hrs
[8] = biological target: Transcription factor p65 (Mus musculus) (UniProt Q04207); test: Inhibition of NF-kappaB p65 translocation from cytosol to nucleus in LPS-induced mouse BV-2 cells at 2.5 to 10 uM pretreated for 4 hrs followed by LPS stimulation and measured after 24 hrs by immunofluorescence analysis; assay type: cell-based; conditions: dose 2.5-10 µM, time 28.0 hrs
Chain of Transcription factor p65 (Mus musculus) (Q04207 whole entry): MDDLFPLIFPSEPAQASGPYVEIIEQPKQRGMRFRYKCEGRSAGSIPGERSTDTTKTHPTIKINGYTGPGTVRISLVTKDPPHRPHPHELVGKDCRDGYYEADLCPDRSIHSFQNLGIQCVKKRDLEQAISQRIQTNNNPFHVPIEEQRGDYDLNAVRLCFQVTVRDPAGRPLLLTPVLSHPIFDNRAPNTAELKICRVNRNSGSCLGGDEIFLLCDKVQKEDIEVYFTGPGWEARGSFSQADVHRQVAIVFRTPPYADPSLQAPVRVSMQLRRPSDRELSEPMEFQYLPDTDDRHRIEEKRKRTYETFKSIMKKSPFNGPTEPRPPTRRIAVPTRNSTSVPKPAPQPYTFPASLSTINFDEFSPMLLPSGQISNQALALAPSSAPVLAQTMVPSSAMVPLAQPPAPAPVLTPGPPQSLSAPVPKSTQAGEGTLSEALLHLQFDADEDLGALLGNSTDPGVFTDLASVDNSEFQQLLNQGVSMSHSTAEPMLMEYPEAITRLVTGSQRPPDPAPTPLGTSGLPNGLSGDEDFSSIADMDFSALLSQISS

BV-2 [9] = test: Effect on NF-kbeta p65 total protein level in mouse BV-2 cells at 5 to 10 uM pretreated for 4 hrs followed by LPS stimulation and measured after 24 hrs by Western blot analysis; assay type: functional, cell-based; conditions: dose 5-10 µM, time 28.0 hrs
[10] = biological target: Transcription factor p65 (Mus musculus) (UniProt Q04207); test: Inhibition of NF-kappaB p65 translocation from cytosol to nucleus in LPS-induced mouse BV-2 cells at 5 to 10 uM pretreated for 4 hrs followed by LPS stimulation and measured after 24 hrs by Western blot analysis; assay type: cell-based; conditions: dose 5-10 µM, time 28.0 hrs
BV-2 [11] = test: Antineuroinflammatory activity in LPS-induced mouse BV-2 cells assessed as downregulation of IKK protein level in nucleus at 5 to 10 uM pretreated for 4 hrs followed by LPS stimulation and measured after 24 hrs by Western blot analysis; assay type: functional, cell-based; conditions: dose 5-10 µM, time 28.0 hrs
BV-2 [12] = test: Antineuroinflammatory activity in LPS-induced mouse BV-2 cells assessed as decrease in IL-1beta mRNA level preincubated for 4 hrs followed by LPS stimulation and measured after 6 hrs by RT-PCR method; assay type: functional, cell-based; conditions: dose 2.5-10 µM, time 10.0 hrs
BV-2 [13] = test: Antineuroinflammatory activity in LPS-induced mouse BV-2 cells assessed as decrease in TNFalpha mRNA level preincubated for 4 hrs followed by LPS stimulation and measured after 6 hrs by RT-PCR method; assay type: functional, cell-based; conditions: dose 2.5-10 µM, time 10.0 hrs
BV-2 [14] = test: Antineuroinflammatory activity in LPS-induced mouse BV-2 cells assessed as decrease in TNFalpha protein level pretreated for 4 hrs followed by LPS stimulation for 24 hrs by ELISA; assay type: functional, cell-based; conditions: dose 2.5-10 µM, time 28.0 hrs

Compound	IC50 (BV-2 [1]) [µM]	CC50 at 24 h [2] [µM]	other results
CC(C)=CC(=O)C(=O)/C(C)=C/CC/C(C)=C/CC[C@]1(C)CCc2cc(O)cc(C)c2O1	> 30	> 50	
CC(C)=C[C@H](O)[C@@H](O)/C(C)=C/CC/C(C)=C/CC[C@]1(C)CCc2cc(O)c(C)c(C)c2O1	25	> 50	
CC(C)=CC(CO)/C(=C/CC/C(C)=C/CC[C@]1(C)CCc2cc(O)cc(C)c2O1)CO (some centres not stated)	5	> 50	
C=C(CC/C=C(\C)[C@H](O)[C@@H](O)C=C(C)C)C(=O)CC[C@]1(C)CCc2cc(O)cc(C)c2O1	19	> 50	
C/C(=C\CC[C@]1(C)CCc2cc(O)cc(C)c2O1)CC/C=C(\C)C(=O)/C=C/C(C)(C)OO	29	> 50	
C/C(=C\CC[C@]1(C)CCc2cc(O)cc(C)c2O1)CC/C=C(\C)C(=O)C(=O)CC(C)C	8	> 50	
C/C(=C\CC[C@]1(C)CCc2cc(O)cc(C)c2O1)CC/C=C(\C)C(=O)/C=C/C(C)(C)O	13	> 50	
CC(=O)/C=C/C/C(C)=C/CC[C@]1(C)CCc2cc(O)cc(C)c2O1	2	> 50	Activity (BV-2 [3]): Dose-Dependent Effect; Activity (BV-2 [4]): Dose-Dependent Effect; Activity (BV-2 [5]): Active; Activity (BV-2 [6]): Active; Activity (BV-2 [7]): Dose-Dependent Effect; inhibition [8]: Active; Activity (BV-2 [9]): inactive; inhibition [10]: Active; Activity (BV-2 [11]): Active; Activity (BV-2 [12]): Dose-Dependent Effect; Activity (BV-2 [13]): Dose-Dependent Effect; Activity (BV-2 [14]): Dose-Dependent Effect
CC(C)=CC(O)C(=O)/C(C)=C/[C@H](O)C/C(C)=C/CC[C@]1(C)CCc2cc(O)cc(C)c2O1 (some centres not stated)	6	> 50	
CC(C)=CC(=O)C/C(C)=C/CC/C(C)=C/CC[C@]1(C)CCc2cc(O)cc(C)c2O1	> 30	> 50	

Source: ChEMBL document CHEMBL5316365, “Anti-Neuroinflammatory Meroterpenoids from a Chinese Collection of the Brown Alga Sargassum siliquastrum” (J Nat Prod, 2023)
